Data reported in patent publication US9693556B2, “Herbicidal pyridazinone derivatives” (SYNGENTA LIMITED, priority 2011, dated 2017).

Key:
Assay type in all cases: in vivo
[1] = system: Echinochloa crus-galli (ECHCG); assay: Post-emergence herbicidal glasshouse test on Echinochloa crus-galli; conditions: post-emergence, 1000 g/h, evaluated after 13 days
Procedure: (§1) Seeds of a variety of test species are sown in standard soil in pots (Alopecurus myosuroides (ALOMY), Setaria faberi (SETFA), Echinochloa crus-galli (ECHCG), Solanum nigrum (SOLNI), Amaranthus retoflexus (AMARE), Ipomoea hederacea (IPOHE)). After cultivation for one day (pre-emergence) or after 8 days cultivation (post-emergence) under controlled conditions in a glasshouse (at 24/16° C., day/night; 14 hours light; 65% humidity), the plants are sprayed with an aqueous spray solution derived from the formulation of the technical active ingredient in acetone/water (50:50) solution containing 0.5% Tween 20 (polyoxyethelyene sorbitan monolaurate, CAS RN 9005-64-5). Compounds are applied at 1000 g/h. The test plants are then grown in a glasshouse under controlled conditions in a glasshouse (at 24/16° C., day/night; 14 hours light; 65% humidity) and watered twice daily. After 13 days for pre and post-emergence, the test is evaluated for the percentage herbicidal damage caused to the plant. The biological activities are shown in the following table on a five point scale (5=80-100% damage; 4=60-79% damage; 3=40-59% damage; 2=20-39% damage; 1=0-19% damage).

Setaria faberi (SETFA) [2] = assay: Post-emergence herbicidal glasshouse test on Setaria faberi; conditions: post-emergence, 1000 g/h, evaluated after 13 days
Procedure: as §1

[3] = system: Alopecurus myosuroides (ALOMY); assay: Post-emergence herbicidal glasshouse test on Alopecurus myosuroides; conditions: post-emergence, 1000 g/h, evaluated after 13 days
Procedure: as §1

[4] = system: Ipomoea hederacea (IPOHE); assay: Post-emergence herbicidal glasshouse test on Ipomoea hederacea; conditions: post-emergence, 1000 g/h, evaluated after 13 days
Procedure: as §1

Solanum nigrum (SOLNI) [5] = assay: Pre-emergence herbicidal glasshouse test on Solanum nigrum; conditions: pre-emergence, 1000 g/h, evaluated after 13 days
Procedure: as §1

Solanum nigrum (SOLNI) [6] = assay: Post-emergence herbicidal glasshouse test on Solanum nigrum; conditions: post-emergence, 1000 g/h, evaluated after 13 days
Procedure: as §1

[7] = system: Amaranthus retoflexus (AMARE); assay: Post-emergence herbicidal glasshouse test on Amaranthus retoflexus; conditions: post-emergence, 1000 g/h, evaluated after 13 days
Procedure: as §1

[8] = system: Amaranthus retoflexus (AMARE); assay: Pre-emergence herbicidal glasshouse test on Amaranthus retoflexus; conditions: pre-emergence, 1000 g/h, evaluated after 13 days
Procedure: as §1

[9] = system: Echinochloa crus-galli (ECHCG); assay: Pre-emergence herbicidal glasshouse test on Echinochloa crus-galli; conditions: pre-emergence, 1000 g/h, evaluated after 13 days
Procedure: as §1

[10] = system: Alopecurus myosuroides (ALOMY); assay: Pre-emergence herbicidal glasshouse test on Alopecurus myosuroides; conditions: pre-emergence, 1000 g/h, evaluated after 13 days
Procedure: as §1

[11] = system: Ipomoea hederacea (IPOHE); assay: Pre-emergence herbicidal glasshouse test on Ipomoea hederacea; conditions: pre-emergence, 1000 g/h, evaluated after 13 days
Procedure: as §1

Setaria faberi (SETFA) [12] = assay: Pre-emergence herbicidal glasshouse test on Setaria faberi; conditions: pre-emergence, 1000 g/h, evaluated after 13 days
Procedure: as §1

SMILES	POST Application ECHCG herbicidal damage (five point scale) [1]	POST Application SETFA herbicidal damage (five point scale) (Setaria faberi (SETFA) [2])	POST Application ALOMY herbicidal damage (five point scale) [3]	POST Application IPOHE herbicidal damage (five point scale) [4]	PRE Application SOLNI herbicidal damage (five point scale) (Solanum nigrum (SOLNI) [5])	POST Application SOLNI herbicidal damage (five point scale) (Solanum nigrum (SOLNI) [6])	POST Application AMARE herbicidal damage (five point scale) [7]	PRE Application AMARE herbicidal damage (five point scale) [8]	PRE Application ECHCG herbicidal damage (five point scale) [9]	PRE Application ALOMY herbicidal damage (five point scale) [10]	PRE Application IPOHE herbicidal damage (five point scale) [11]	PRE Application SETFA herbicidal damage (five point scale) (Setaria faberi (SETFA) [12])	other results
Cn1ncc(-n2ccc(C(F)(F)F)c(-c3cccc(C(F)(F)F)c3)c2=O)c(O)c1=O [Compound 7.018]	5 (5=80-100% damage)	5 (5=80-100% damage)	5 (5=80-100% damage)	3 (3=40-59% damage)	5 (5=80-100% damage)	5 (5=80-100% damage)	5 (5=80-100% damage)	5 (5=80-100% damage)	5 (5=80-100% damage)	5 (5=80-100% damage)	2 (2=20-39% damage)	5 (5=80-100% damage)	
Cn1ncc(-c2c(Br)cccc2S(C)(=O)=O)c(O)c1=O [Compound 1.106]	4 (4=60-79% damage)	2 (2=20-39% damage)	2 (2=20-39% damage)	2 (2=20-39% damage)	1 (1=0-19% damage)	4 (4=60-79% damage)	5 (5=80-100% damage)	4 (4=60-79% damage)	1 (1=0-19% damage)	1 (1=0-19% damage)	1 (1=0-19% damage)	1 (1=0-19% damage)	
Cn1ncc(-c2cc(Cl)c(Cl)cc2Cl)c(O)c1=O [Compound 1.089]	1 (1=0-19% damage)	1 (1=0-19% damage)	1 (1=0-19% damage)	1 (1=0-19% damage)	1 (1=0-19% damage)	1 (1=0-19% damage)	1 (1=0-19% damage)	1 (1=0-19% damage)	1 (1=0-19% damage)	1 (1=0-19% damage)	1 (1=0-19% damage)	1 (1=0-19% damage)	
Cn1ncc(-c2cc(Br)c(Br)cc2S(C)(=O)=O)c(O)c1=O [Compound 1.160]													herbicidal damage, POST Application ECHCG ([1]; five point scale): 5 (5=80-100% damage); herbicidal damage, POST Application SETFA (Setaria faberi (SETFA) [2]; five point scale): 4 (4=60-79% damage); herbicidal damage, POST Application ALOMY ([3]; five point scale): 3 (3=40-59% damage); herbicidal damage, POST Application IPOHE ([4]; five point scale): 5 (5=80-100% damage); herbicidal damage, PRE Application SOLNI (Solanum nigrum (SOLNI) [5]; five point scale): 4 (4=60-79% damage); herbicidal damage, POST Application SOLNI (Solanum nigrum (SOLNI) [6]; five point scale): 5 (5=80-100% damage); herbicidal damage, POST Application AMARE ([7]; five point scale): 5 (5=80-100% damage); herbicidal damage, PRE Application AMARE ([8]; five point scale): 5 (5=80-100% damage); herbicidal damage, PRE Application ECHCG ([9]; five point scale): 5 (5=80-100% damage); herbicidal damage, PRE Application ALOMY ([10]; five point scale): 1 (1=0-19% damage); herbicidal damage, PRE Application IPOHE ([11]; five point scale): 2 (2=20-39% damage); herbicidal damage, PRE Application SETFA (Setaria faberi (SETFA) [12]; five point scale): 1 (1=0-19% damage)
Cn1cccc(-c2cnn(C)c(=O)c2O)c1=O [Compound 9.003]	1 (1=0-19% damage)	2 (2=20-39% damage)	1 (1=0-19% damage)	2 (2=20-39% damage)	1 (1=0-19% damage)	4 (4=60-79% damage)	4 (4=60-79% damage)	2 (2=20-39% damage)	1 (1=0-19% damage)	1 (1=0-19% damage)	1 (1=0-19% damage)	1 (1=0-19% damage)	
Cn1ncc(-c2ccc(S(C)(=O)=O)cc2S(C)(=O)=O)c(O)c1=O [Compound 1.119]	5 (5=80-100% damage)	5 (5=80-100% damage)	5 (5=80-100% damage)	5 (5=80-100% damage)	5 (5=80-100% damage)	5 (5=80-100% damage)	5 (5=80-100% damage)	5 (5=80-100% damage)	5 (5=80-100% damage)	5 (5=80-100% damage)	5 (5=80-100% damage)	5 (5=80-100% damage)	
Cn1ncc(-c2ccc(C(F)(F)F)nc2OCc2cccc(Cl)c2)c(O)c1=O [Compound 4.009]	1 (1=0-19% damage)	1 (1=0-19% damage)	1 (1=0-19% damage)	1 (1=0-19% damage)	1 (1=0-19% damage)	5 (5=80-100% damage)	4 (4=60-79% damage)	3 (3=40-59% damage)	1 (1=0-19% damage)	1 (1=0-19% damage)	1 (1=0-19% damage)	1 (1=0-19% damage)	
CCOc1nn(C)c(=O)c(O)c1-c1ccc(C(F)(F)F)cc1S(C)(=O)=O [Compound 2.050]	5 (5=80-100% damage)	5 (5=80-100% damage)	5 (5=80-100% damage)	5 (5=80-100% damage)	5 (5=80-100% damage)	5 (5=80-100% damage)	5 (5=80-100% damage)	5 (5=80-100% damage)	5 (5=80-100% damage)	5 (5=80-100% damage)	5 (5=80-100% damage)	5 (5=80-100% damage)	
